Reference: patent US12037345B2, “Heterobicyclic compounds for inhibiting the activity of SHP2” (TAIHO PHARMACEUTICAL CO., LTD., priority 2018, dated 2024)
Structures can show the parent of a compound that is named as a salt. Where two headings read alike, the source gives them in different places.

Tests used:
[1] = system: pERK (phospho-p44/42 MAPK Thr202/Tyr204) in HCC827 cells; test: Cellular pERK Inhibition Assay, Method B (PathScan phospho-p44/42 MAPK sandwich ELISA); format: cell-based; conditions: Homo sapiens, Table 19, head prints unit as "-M", read-out: pERK (IC50) Method B
Description: Cellular pERK Inhibition Assay
HCC827 cells (ATCC, Manassas, USA) were seeded into 96-well plates at a density of 1×10^5 cells/well in RPMI medium supplemented with 10% FBS and incubated 24h. Compounds were diluted first in DMSO and then into serum-free medium, before being added to cells in triplicate to give a final concentration of 0.1% DMSO. Plates were incubated at 37° C. for the indicated time in a humidified atmosphere of 5% CO2 in air.
Following compound treatment, medium was removed and cells were lysed by adding 50 μL of lysis buffer (Cell Signalling Technology, Beverly, USA) to each well. Plates were then incubated at room temperature for 25 minutes with shaking. pERK levels were measured in lysates using the PathScan(Registered Trademark) phospho-p44/42 MAPK (Thr202/Tyr204) sandwich ELISA (Cell Signalling Technology, Beverly, USA) as per kit instructions. Briefly, 50 μL of cell lysate was added to 50 μL of ELISA sample diluent in a 96-well ELISA plate and incubated overnight at 4° C. Following washing, 100 μL of detection antibody was added per well and the plates incubated for 1 hour at 37° C. Plates were washed again and incubated at 37° C. for 30 minutes with 100 μl of HRP-linked secondary antibody per well. After final washing, 100 μL per well of TMB substrate was added and plates incubated at 37° C. to develop colour. Colour development was stopped by the addition of 100 μL per well of stop solution. Plates were read at 450 nm on a SpectraMax Gemini reader (Molecular Devices, Uckfield, UK).
The average signal from blank wells (no cells added) was subtracted from the signals from each sample well. Levels of pERK were then expressed as “percent of control”, using DMSO treated samples as control. Dose response curves were generated using GraphPad Prism Version 6 (GraphPad Software, La Jolla, USA) and fitted using the four parameter logistic curve fit.

SHP2 = SHP2 (Homo sapiens (Human), UniProt Q06124); test: SHP2 Biochemical Assay (DiFMUP conversion, pIRS1-activated)
Method in brief: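 Human SHP2 (10 pM) pre-incubated 30 min with compound and […] pIRS1 activating peptide, then 50 μM DiFMUP added; buffer 25 mM Bis-Tris propane pH 7.0, 150 mM NaCl, 5% DMSO. Fluorescence rate (ex 360/em 450 nm) over 30 min; IC50 by four-parameter fit, averaged across experiments.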

[2] = system: pERK (phospho-p44/42 ERK) in HCC827 cells; test: Cellular pERK Inhibition Assay, Method A (In-Cell Western); format: cell-based; conditions: Homo sapiens
Method in brief: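 HCC827 cells in RPMI/10% FBS were treated with compounds in serum-free medium (0.2% DMSO final) at 37 °C for the indicated time, in quadruplicate. Fixed cells were immunostained for phospho-p44/42 ERK and read by infrared imaging. Blank-subtracted signal was expressed as % of DMSO control; IC50 from four-parameter logistic fit, averaged across experiments.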

[3] = Table 19, head prints unit as "-M"
[4] = Table 19, head prints unit as "-M", read-out: pERK (IC50) Method A
[5] = Table 20, read-out: pERK (IC50, μM) Method A

IC50 [1] [nM] | Structure (SMILES) | IC50 (SHP2; [3]) [nM] | IC50 [2, 4] [µM] | IC50 [2, 5] [µM] | IC50 (SHP2; Table 20) [nM]
520 | CCn1cc2c(Cl)c(-c3c[nH]c4nc(N5CCCNCC5)n(C)c(=O)c34)ccc2n1 [Example 151, 5-(4-chloro-2-ethyl-2H-indazol-5-yl)-2-(1,4-diazepan-1-yl)-3-methyl-3H,4H,7H-pyrrolo[2,3-d]pyrimidin-4-one hydrochloride] | 23 |  |  | 
 | Cn1cc2c(Cl)c(-c3c[nH]c4nc(N5CC[C@H](N)C5)n(C)c(=O)c34)ccc2n1 [Example 43, (S)-2-(3-aminopyrrolidin-1-yl)-5-(4-chloro-2-methyl-2H-indazol-5-yl)-3-methyl-3,7-dihydro-4H-pyrrolo[2,3-d]pyrimidin-4-one] | 35 | 0.72 |  | 
 | CN(C)C(=O)Cn1cc2c(Cl)c(-c3c[nH]c4nc(N5C6CCC5CNC6)n(C)c(=O)c34)ccc2n1 [Example 86, 2-(5-(2-(3,8-diazabicyclo[3.2.1]octan-8-yl)-3-methyl-4-oxo-4,7-dihydro-3H-pyrrolo[2,3-d]pyrimidin-5-yl)-4-chloro-2H-indazol-2-yl)-N,N-dimethylacetamide] | 59 | 5.2 |  | 
 | Cn1cc2c(Cl)c(-c3c[nH]c4nc(N5CC6COCC(C5)N6)n(C)c(=O)c34)ccc2n1 [Example 17, 2-(3-oxa-7,9-diazabicyclo[3.3.1]nonan-7-yl)-5-(4-chloro-2-methyl-2H-indazol-5-yl)-3-methyl-3,7-dihydro-4H-pyrrolo[2,3-d]pyrimidin-4-one] | 43 | 0.8 |  | 
 | Cn1cc2c(Cl)c(-c3c[nH]c4nc(N5C[C@H]6C[C@@H]5CN6)n(C)c(=O)c34)ccc2n1 [Example 23, 2-((1R,4R)-2,5-diazabicyclo[2.2.1]heptan-2-yl)-5-(4-chloro-2-methyl-2H-indazol-5-yl)-3-methyl-3,7-dihydro-4H-pyrrolo[2,3-d]pyrimidin-4-one] | 120 | 4.1 |  | 
 | Cn1cc2c(Cl)c(-c3c[nH]c4nc(N5CC[C@@H](N)C5)n(C)c(=O)c34)ccc2n1 [Example 44, (R)-2-(3-aminopyrrolidin-1-yl)-5-(4-chloro-2-methyl-2H-indazol-5-yl)-3-methyl-3,7-dihydro-4H-pyrrolo[2,3-d]pyrimidin-4-one] | 55 | 1.5 |  | 
 | CCn1cc2c(Cl)c(-c3c[nH]c4nc(N5[C@@H]6CC[C@H]5C[C@H](N)C6)n(C)c(=O)c34)ccc2n1 [Example 4, 2-(exo-3-amino-8-azabicyclo[3.2.1]octan-8-yl)-5-(4-chloro-2-ethyl-2H-indazol-5-yl)-3-methyl-3,7-dihydro-4H-pyrrolo[2,3-d]pyrimidin-4-one] | 7.5 | 0.12 |  | 
 | COC1(CN)CCN(c2nc3[nH]cc(-c4ccc5nn(C)cc5c4Cl)c3c(=O)n2C)CC1 [Example 64, 2-(4-(aminomethyl)-4-methoxypiperidin-1-yl)-5-(4-chloro-2-methyl-2H-indazol-5-yl)-3-methyl-3,7-dihydro-4H-pyrrolo[2,3-d]pyrimidin-4-one] | 42 | 1.5 |  | 
 | Cn1cc2c(Cl)c(-c3c[nH]c4nc(N5CC6CCCC(C5)N6)n(C)c(=O)c34)ccc2n1 [Example 30, 2-(3,9-diazabicyclo[3.3.1]nonan-3-yl)-5-(4-chloro-2-methyl-2H-indazol-5-yl)-3-methyl-3,7-dihydro-4H-pyrrolo[2,3-d]pyrimidin-4-one] | 9.7 | 0.22 |  | 
 | Cn1c(N2[C@@H]3CC[C@H]2C[C@@H](N)C3)nc2[nH]cc(-c3ccc4nccnc4c3Cl)c2c1=O [Example 176, 2-(endo-3-amino-8-azabicyclo[3.2.1]octan-8-yl)-5-(5-chloroquinoxalin-6-yl)-3-methyl-3,7-dihydro-4H-pyrrolo[2,3-d]pyrimidin-4-one] |  |  | 0.66 | 77
 | Cn1cc2cc(-c3c[nH]c4nc(N5[C@@H]6CC[C@H]5C[C@@H](N)C6)n(C)c(=O)c34)ccc2n1 [Example 67, 2-(endo-3-amino-8-azabicyclo[3.2.1]octan-8-yl)-3-methyl-5-(2-methyl-2H-indazol-5-yl)-3,7-dihydro-4H-pyrrolo[2,3-d]pyrimidin-4-one] | 340 | 3.4 |  | 
 | Cn1cc2c(Cl)c(-c3c[nH]c4nc(N5CC6CC6(N)C5)n(C)c(=O)c34)ccc2n1 (stereo not drawn) [Example 61, 2-(1-amino-3-azabicyclo[3.1.0]hexan-3-yl)-5-(4-chloro-2-methyl-2H-indazol-5-yl)-3-methyl-3,7-dihydro-4H-pyrrolo[2,3-d]pyrimidin-4-one] | 98 | 1.8 |  | 
 | Cn1cc2c(Cl)c(-c3c[nH]c4nc(N5CCC6(CCCN6)CC5)n(C)c(=O)c34)ccc2n1 [Example 38, 5-(4-chloro-2-methyl-2H-indazol-5-yl)-3-methyl-2-(1,8-diazaspiro[4.5]decan-8-yl)-3,7-dihydro-4H-pyrrolo[2,3-d]pyrimidin-4-one] | 74 | 1.4 |  | 
 | Cn1nc2ccc(-c3c[nH]c4nc(N5C[C@H]6CC[C@@H]5[C@@H]6N)n(C)c(=O)c34)c(F)c2c1Cl [Example 174, 2-((1R,4R,7R)-7-amino-2-azabicyclo[2.2.1]heptan-2-yl)-5-(3-chloro-4-fluoro-2-methyl-2H-indazol-5-yl)-3-methyl-3,7-dihydro-4H-pyrrolo[2,3-d]pyrimidin-4-one] |  |  | 0.021 | 3
 | Cn1cc2c(Cl)c(-c3c[nH]c4nc(N5[C@@H]6CCC[C@H]5C[C@@H](N)C6)n(C)c(=O)c34)ccc2n1 [Example 37, 2-(endo-3-amino-9-azabicyclo[3.3.1]nonan-9-yl)-5-(4-chloro-2-methyl-2H-indazol-5-yl)-3-methyl-3,7-dihydro-4H-pyrrolo[2,3-d]pyrimidin-4-one] | 12 | 0.97 |  | 
 | Cn1nc2ccc(-c3c[nH]c4nc(N5[C@@H]6CC[C@H]5C[C@@](C)(N)C6)n(C)c(=O)c34)c(Cl)c2c1Cl [Example 79, 2-(endo-3-amino-3-methyl-8-azabicyclo[3.2.1]octan-8-yl)-5-(3,4-dichloro-2-methyl-2H-indazol-5-yl)-3-methyl-3,7-dihydro-4H-pyrrolo[2,3-d]pyrimidin-4-one] | 5.5 | 0.16 |  | 
 | Cc1nc2ccc(-c3c[nH]c4nc(N5[C@H]6CC[C@@H]5[C@H](N)C6)n(C)c(=O)c34)c(Cl)c2s1 [Example 95, 2-((1R,2R,4S)-2-amino-7-azabicyclo[2.2.1]heptan-7-yl)-5-(7-chloro-2-methylbenzo[d]thiazol-6-yl)-3-methyl-3,7-dihydro-4H-pyrrolo[2,3-d]pyrimidin-4-one] | 2.5 | 0.068 |  | 
 | CCn1cc2c(Cl)c(-c3n[nH]c4nc(N5[C@H]6CC[C@@H]5[C@H](NC)C6)n(C)c(=O)c34)ccc2n1 [Example 118, 3-(4-chloro-2-ethyl-2H-indazol-5-yl)-5-methyl-6-((1R,2R,4S)-2-(methylamino)-7-azabicyclo[2.2.1]heptan-7-yl)-1,5-dihydro-4H-pyrazolo[3,4-d]pyrimidin-4-one] | 49 | 1.1 |  | 
 | Cn1cc2c(Cl)c(-c3c[nH]c4nc(N5[C@@H]6CC[C@H]5C[C@@H](N)C6)n(C)c(=O)c34)ccc2n1 [Example 8, 2-(endo-3-amino-8-azabicyclo[3.2.1]octan-8-yl)-5-(4-chloro-2-methyl-2H-indazol-5-yl)-3-methyl-3,7-dihydro-4H-pyrrolo[2,3-d]pyrimidin-4-one] | 11 | 0.095 |  | 
 | CCn1cc2c(Cl)c(-c3c[nH]c4nc(N5[C@@H]6CC[C@H]5C[C@@H](NC)C6)n(C)c(=O)c34)ccc2n1 [Example 13, 5-(4-chloro-2-ethyl-2H-indazol-5-yl)-3-methyl-2-(endo-3-(methylamino)-8-azabicyclo[3.2.1]octan-8-yl)-3,7-dihydro-4H-pyrrolo[2,3-d]pyrimidin-4-one] | 19 | 0.34 |  | 
 | Cn1nc2ccc(-c3n[nH]c4nc(N5C[C@@H]6CC[C@H]5[C@H]6N)n(C)c(=O)c34)c(Cl)c2c1Cl (racemic) [Example 126, rac-6-((1S,4S,7S)-7-amino-2-azabicyclo[2.2.1]heptan-2-yl)-3-(3,4-dichloro-2-methyl-2H-indazol-5-yl)-5-methyl-1,5-dihydro-4H-pyrazolo[3,4-d]pyrimidin-4-one] | 13 | 0.084 |  | 
